These results are taken from patent publication US9045491B2, “Thienyl [3,2-D] pyrimidin-4-one compounds, preparation method, pharmaceutical compositions and use thereof” (SHANGHAI INSTITUTE OF MATERIA MEDICA, CHINESE ACADEMY OF …, priority 2011, dated 2015).

The target of data set [1] is T1, DPP IV (Mus musculus, UniProt P28843).
T1 construct: from tissue; host or cells: plasma of ICR mouse
Description: DPP IV inhibitory activity in vivo: DPP IV activity in plasma of ICR mouse after single oral dose. To be noted: oral 3 mg/kg, compared with Alogliptin and Vildagliptin (LAF237), FIG. 1-6. The method, then:
Animals: ICR mouse (8-10 weeks old; sex: male; 25 g-30 g of body weight, purchased from Shanghai SLAC Laboratory Animal Center).
Meanwhile the solvent group was used as blank control. The blood was taken from orbital venous plexus of the mouse before administration, and 30, 60, 2 h, 4 h, 6 h, 8 h and […] after administration, respectively and loaded into Eppendorf tube (Qizhong Industrial (Shanghai) co., Ltd.) treated by anticoagulant. The plasma was obtained by centrifugation and DPP IV activity was determined.

Data set [2] has as its system normal ICR mouse. Description: Oral glucose tolerance test (OGTT), acute hypoglycemic effect of single oral dose. It is filed as in vivo. To be noted: single dose 3 mg/kg by gavage, glucose 2.5 g/kg after 6 hours, FIGS. 7-10. The method, then:
Acute hypoglycemic effect of single dose through mouth on the normal ICR mouse
Animal: ICR mouse (8-10 weeks old, sex: male, weight: 25-30 g, purchased from Shanghai SLAC Laboratory Animal Center).
1. Two days before the experiment, the food consumption was recorded and the daily food consumption of each animal was calculated;
2. The animals fasted overnight (⅓ of daily food consumption was provided, about 2 g);
3. The blood glucose was measured on the second day.
4. The medicament was administrated through gavage (1 mouse/min). After 6 hours, the blood glucose was measured. Glucose was administrated through gavage according to the body weight (2.5 g/kg). The blood glucose value was monitored at 30 min, 60 min, 90 min, and 120 min after administration.

The nature of data set [3]: Safety evaluation: single dose 100 mg/kg by gavage, one week observation. It is filed as in vivo, ICR mouse. The method, then: After grouping, each compound was administrated once through gavage according to the dose of 100 mg/kg at the same time.
The mark [4] stands for this setting: normal ICR mouse, 100 mg/kg single dose, 7th day.
[5] abbreviates: normal ICR mouse, 100 mg/kg single dose, 1 d after administration.
The mark [6] stands for this setting: normal ICR mouse, 100 mg/kg single dose, 2 d after administration.
Where [7] appears, read: normal ICR mouse, 100 mg/kg single dose, 3 d after administration.
[8] abbreviates: normal ICR mouse, 100 mg/kg single dose, 4 d after administration.
Setting [9] is: normal ICR mouse, 100 mg/kg single dose, 5 d after administration.
Where [10] appears, read: normal ICR mouse, 100 mg/kg single dose, 6 d after administration.
[11] abbreviates: normal ICR mouse, 100 mg/kg single dose, 7 d after administration.
Setting [12] is: normal ICR mouse, 100 mg/kg single dose, before administration.

T1 sequence (P28843 37-760 limits assumed): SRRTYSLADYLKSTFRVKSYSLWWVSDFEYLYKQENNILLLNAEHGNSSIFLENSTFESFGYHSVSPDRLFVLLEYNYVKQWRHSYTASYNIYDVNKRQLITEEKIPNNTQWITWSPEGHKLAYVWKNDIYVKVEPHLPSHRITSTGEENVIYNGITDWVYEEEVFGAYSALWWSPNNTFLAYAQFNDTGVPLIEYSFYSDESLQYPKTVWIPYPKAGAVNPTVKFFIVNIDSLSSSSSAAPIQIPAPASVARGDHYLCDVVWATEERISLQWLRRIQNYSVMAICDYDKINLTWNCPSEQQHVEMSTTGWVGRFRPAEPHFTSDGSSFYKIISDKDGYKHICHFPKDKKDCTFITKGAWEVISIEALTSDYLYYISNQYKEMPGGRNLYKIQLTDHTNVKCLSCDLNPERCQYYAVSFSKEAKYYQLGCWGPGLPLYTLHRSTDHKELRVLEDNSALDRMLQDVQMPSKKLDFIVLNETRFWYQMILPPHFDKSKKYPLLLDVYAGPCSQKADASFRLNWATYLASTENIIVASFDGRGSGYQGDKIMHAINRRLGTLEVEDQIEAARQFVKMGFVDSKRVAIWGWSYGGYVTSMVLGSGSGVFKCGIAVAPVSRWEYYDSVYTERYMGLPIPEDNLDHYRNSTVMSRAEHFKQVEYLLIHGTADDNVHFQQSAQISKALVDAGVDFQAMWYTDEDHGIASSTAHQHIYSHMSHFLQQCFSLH

In the case of `N#Cc1ccccc1Cn1c(N2CCC[C@@H](N)C2)nc2cc(C(Br)Br)sc2c1=O` [DC291411], the “DPP IV activity of ICR mouse plasma after single dose (given as hypoglycemic ability in vivo)” value in data set [1] is “comparable to that of Alogliptin (3 mg), and better than that of Vildagliptin (LAF237, 15 mg)”. Besides, the “hypoglycemic ability in vivo, oral glucose tolerance test” value in data set [2] is given as “comparable to that of Alogliptin”. Also, the “body weight and viscera index versus normal control group (in words)” value in data set [3] (ICR mouse, 100 mg/kg single dose) is reported as “no statistical difference”. In addition, the acute toxicity entry in data set [3] (ICR mouse, 100 mg/kg single dose by gavage, one week) is reported as “did not reflect obvious acute toxicity”. In addition, the “kidney index versus normal control group (in words)” value in data set [3] (ICR mouse, 100 mg/kg, 7th day after administration) is “slightly lower than that of normal control group”. The compound further registered a Kidney index in data set [3] (setting [4]) of 1.4 ± 0.1%. In data set [3] (setting [4]), the Liver index turned out to be 5.0 ± 0.4%. The same compound registered a Spleen index in data set [3] (setting [4]) of 0.4 ± 0.0%. In addition, the body weight is reported as 30.5 ± 1.6 g in data set [3] (setting [5]); 31.2 ± 1.6 g in data set [3] (setting [6]); 31.0 ± 1.7 g in data set [3] (setting [7]); 31.5 ± 1.9 g in data set [3] (setting [8]); 31.8 ± 1.5 g in data set [3] (setting [9]); 31.6 ± 1.8 g in data set [3] (setting [10]). For the same compound, the body weight in data set [3] (setting [11]) was 32.1 ± 1.7 g; in data set [3] (setting [12]) it was 30 ± 1.5 g. The food consumption in data set [3] (setting [5]) is 19.3 g · day^−1 · cage^−1; in data set [3] (setting [6]) it was 21.3 g · day^−1 · cage^−1; in data set [3] (setting [7]) it was 18.8 g · day^−1 · cage^−1; in data set [3] (setting [8]) it was 18.3 g · day^−1 · cage^−1; in data set [3] (setting [9]), 17.7 g · day^−1 · cage^−1; in data set [3] (setting [10]), 20.5 g · day^−1 · cage^−1. The food consumption in data set [3] (setting [11]) came to 21.9 g · day^−1 · cage^−1; in data set [3] (setting [12]), 20.8 g · day^−1 · cage^−1.
